PubChem BioAssay (NCI)
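Compound exposure: 48 hours, 5 concentrations, 96-well plates. TGI: concentration producing complete growth inhibition.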

Assays:
Test in all cases: DTP human tumour cell line panel, 48 h
HCC-2998 colon = tested on: HCC-2998 colon
OVCAR-4 ovarian = tested on: OVCAR-4 ovarian
M14 melanoma = tested on: M14 melanoma
U251 CNS = tested on: U251 CNS
786-0 renal = tested on: 786-0 renal
ACHN renal = tested on: ACHN renal
OVCAR-3 ovarian = tested on: OVCAR-3 ovarian
SK-MEL-2 melanoma = tested on: SK-MEL-2 melanoma
HL-60(TB) leukemia = tested on: HL-60(TB) leukemia
SNB-75 CNS = tested on: SNB-75 CNS
NCI-H23 lung = tested on: NCI-H23 lung
A498 renal = tested on: A498 renal
KM12 colon = tested on: KM12 colon
SK-MEL-28 melanoma = tested on: SK-MEL-28 melanoma
HT29 colon = tested on: HT29 colon
MCF7 breast = tested on: MCF7 breast
MDA-MB-435 = tested on: MDA-MB-435
EKVX NSCLC = tested on: EKVX NSCLC
MDA-MB-231 breast = tested on: MDA-MB-231 breast
SN12C renal = tested on: SN12C renal
SF-268 CNS = tested on: SF-268 CNS
SF-295 CNS = tested on: SF-295 CNS
MOLT-4 leukemia = tested on: MOLT-4 leukemia
NCI/ADR-RES ovarian = tested on: NCI/ADR-RES ovarian
SW-620 colon = tested on: SW-620 colon
NCI-H460 lung = tested on: NCI-H460 lung
HCT-15 colon = tested on: HCT-15 colon
A549 NSCLC = tested on: A549 NSCLC
SK-OV-3 ovarian = tested on: SK-OV-3 ovarian
T-47D breast = tested on: T-47D breast
K-562 leukemia = tested on: K-562 leukemia
CCRF-CEM leukemia = tested on: CCRF-CEM leukemia
LOX IMVI melanoma = tested on: LOX IMVI melanoma
OVCAR-8 ovarian = tested on: OVCAR-8 ovarian
IGROV1 ovarian = tested on: IGROV1 ovarian
HS 578T breast = tested on: HS 578T breast
UACC-257 melanoma = tested on: UACC-257 melanoma
SF-539 CNS = tested on: SF-539 CNS
SNB-19 CNS = tested on: SNB-19 CNS
TK-10 renal = tested on: TK-10 renal
MDA-N = tested on: MDA-N
UACC-62 melanoma = tested on: UACC-62 melanoma
NCI-H226 lung = tested on: NCI-H226 lung
MALME-3M melanoma = tested on: MALME-3M melanoma
RXF 393 renal = tested on: RXF 393 renal
NCI-H522 lung = tested on: NCI-H522 lung
COLO 205 colon = tested on: COLO 205 colon
HCT-116 colon = tested on: HCT-116 colon
BT-549 breast = tested on: BT-549 breast
OVCAR-5 ovarian = tested on: OVCAR-5 ovarian
HOP-62 NSCLC = tested on: HOP-62 NSCLC
CAKI-1 renal = tested on: CAKI-1 renal
PC-3 prostate = tested on: PC-3 prostate
RPMI-8226 leukemia = tested on: RPMI-8226 leukemia
DU-145 prostate = tested on: DU-145 prostate
UO-31 renal = tested on: UO-31 renal
SK-MEL-5 melanoma = tested on: SK-MEL-5 melanoma
HOP-92 NSCLC = tested on: HOP-92 NSCLC

CCO/C(O)=C(/C(=N)N1CCCC1)C(=O)Nc1ccc(F)cc1
TGI (HCC-2998 colon): > 100 µM
TGI (OVCAR-4 ovarian): > 100 µM
TGI (M14 melanoma): > 100 µM
TGI (U251 CNS): > 100 µM
TGI (786-0 renal): > 100 µM
TGI (ACHN renal): > 100 µM
TGI (OVCAR-3 ovarian): > 100 µM
TGI (SK-MEL-2 melanoma): > 100 µM
TGI (HL-60(TB) leukemia): > 100 µM
TGI (SNB-75 CNS): > 100 µM
TGI (NCI-H23 lung): 59.4 µM
TGI (A498 renal): > 100 µM
TGI (KM12 colon): > 100 µM
TGI (SK-MEL-28 melanoma): > 100 µM
TGI (HT29 colon): > 100 µM
TGI (MCF7 breast): > 100 µM
TGI (MDA-MB-435): > 100 µM
TGI (EKVX NSCLC): > 100 µM
TGI (MDA-MB-231 breast): > 100 µM
TGI (SN12C renal): > 100 µM
TGI (SF-268 CNS): > 100 µM
TGI (SF-295 CNS): > 100 µM
TGI (MOLT-4 leukemia): > 100 µM
TGI (NCI/ADR-RES ovarian): > 100 µM
TGI (SW-620 colon): > 100 µM
TGI (NCI-H460 lung): > 100 µM
TGI (HCT-15 colon): > 100 µM
TGI (A549 NSCLC): > 100 µM
TGI (SK-OV-3 ovarian): > 100 µM
TGI (T-47D breast): > 100 µM
TGI (K-562 leukemia): > 100 µM
TGI (CCRF-CEM leukemia): > 100 µM
TGI (LOX IMVI melanoma): > 100 µM
TGI (OVCAR-8 ovarian): > 100 µM
TGI (IGROV1 ovarian): > 100 µM
TGI (HS 578T breast): > 100 µM
TGI (UACC-257 melanoma): > 100 µM
TGI (SF-539 CNS): > 100 µM
TGI (SNB-19 CNS): > 100 µM
TGI (TK-10 renal): > 100 µM
TGI (MDA-N): > 100 µM
TGI (UACC-62 melanoma): > 100 µM
TGI (NCI-H226 lung): > 100 µM
TGI (MALME-3M melanoma): > 100 µM
TGI (RXF 393 renal): > 100 µM
TGI (NCI-H522 lung): > 100 µM
TGI (COLO 205 colon): > 100 µM
TGI (HCT-116 colon): > 100 µM
TGI (BT-549 breast): > 100 µM
TGI (OVCAR-5 ovarian): > 100 µM
TGI (HOP-62 NSCLC): > 100 µM
TGI (CAKI-1 renal): > 100 µM
TGI (PC-3 prostate): > 100 µM
TGI (RPMI-8226 leukemia): > 100 µM
TGI (DU-145 prostate): > 100 µM

O=c1oc2ccccc2c(O)c1C(c1ccc2c(c1)Cc1ccccc1-2)c1c(O)c2ccccc2oc1=O
TGI (HCC-2998 colon): 33.6 µM
TGI (OVCAR-4 ovarian): > 100 µM
TGI (M14 melanoma): 41 µM
TGI (U251 CNS): 60.3 µM
TGI (786-0 renal): 66.9 µM
TGI (ACHN renal): 45.6 µM
TGI (OVCAR-3 ovarian): > 100 µM
TGI (SK-MEL-2 melanoma): 74.2 µM
TGI (HL-60(TB) leukemia): 59.8 µM
TGI (SNB-75 CNS): > 100 µM
TGI (NCI-H23 lung): 69.5 µM
TGI (UO-31 renal): 33.1 µM
TGI (A498 renal): > 100 µM
TGI (KM12 colon): 49.1 µM
TGI (SK-MEL-28 melanoma): 57.6 µM
TGI (HT29 colon): > 100 µM
TGI (MCF7 breast): 51.1 µM
TGI (MDA-MB-435): 77.4 µM
TGI (EKVX NSCLC): > 100 µM
TGI (MDA-MB-231 breast): 57.9 µM
TGI (SN12C renal): 41.2 µM
TGI (SF-268 CNS): 68.4 µM
TGI (SF-295 CNS): 57.4 µM
TGI (MOLT-4 leukemia): > 100 µM
TGI (NCI/ADR-RES ovarian): > 100 µM
TGI (SW-620 colon): 90.9 µM
TGI (NCI-H460 lung): 62.4 µM
TGI (HCT-15 colon): 57.2 µM
TGI (SK-MEL-5 melanoma): 39.9 µM
TGI (A549 NSCLC): 44.4 µM
TGI (SK-OV-3 ovarian): 90.8 µM
TGI (T-47D breast): > 100 µM
TGI (HOP-92 NSCLC): 49.3 µM
TGI (CCRF-CEM leukemia): > 100 µM
TGI (LOX IMVI melanoma): 66.7 µM
TGI (OVCAR-8 ovarian): > 100 µM
TGI (IGROV1 ovarian): > 100 µM
TGI (HS 578T breast): 86.3 µM
TGI (UACC-257 melanoma): > 100 µM
TGI (SF-539 CNS): 43.5 µM
TGI (SNB-19 CNS): > 100 µM
TGI (TK-10 renal): > 100 µM
TGI (MDA-N): 36.7 µM
TGI (UACC-62 melanoma): 49.8 µM
TGI (NCI-H226 lung): > 100 µM
TGI (MALME-3M melanoma): 71.4 µM
TGI (RXF 393 renal): 35.5 µM
TGI (NCI-H522 lung): 49.2 µM
TGI (COLO 205 colon): 37.2 µM
TGI (HCT-116 colon): > 100 µM
TGI (BT-549 breast): 53.6 µM
TGI (OVCAR-5 ovarian): 66.1 µM
TGI (HOP-62 NSCLC): > 100 µM
TGI (CAKI-1 renal): 41.5 µM
TGI (PC-3 prostate): > 100 µM
TGI (RPMI-8226 leukemia): > 100 µM
TGI (DU-145 prostate): > 100 µM
